Assay results as given in patent publication US20250026752A1, “POSITIVE ALLOSTERIC MODULATORS OF THE MUSCARINIC ACETYLCHOLINE RECEPTOR M4” (Vanderbilt University, priority 2021, published 2025).
pEC50: −log10 of the molar value.

Molecular target: T1, human mAChR M4 (Homo sapiens, UniProt P08173)
T1 construct: expressed in transfected cells; host or cells: CHO-K1 (ATCC), stably expressing hM4 and Gqi5
T1 sequence (P08173 1-479): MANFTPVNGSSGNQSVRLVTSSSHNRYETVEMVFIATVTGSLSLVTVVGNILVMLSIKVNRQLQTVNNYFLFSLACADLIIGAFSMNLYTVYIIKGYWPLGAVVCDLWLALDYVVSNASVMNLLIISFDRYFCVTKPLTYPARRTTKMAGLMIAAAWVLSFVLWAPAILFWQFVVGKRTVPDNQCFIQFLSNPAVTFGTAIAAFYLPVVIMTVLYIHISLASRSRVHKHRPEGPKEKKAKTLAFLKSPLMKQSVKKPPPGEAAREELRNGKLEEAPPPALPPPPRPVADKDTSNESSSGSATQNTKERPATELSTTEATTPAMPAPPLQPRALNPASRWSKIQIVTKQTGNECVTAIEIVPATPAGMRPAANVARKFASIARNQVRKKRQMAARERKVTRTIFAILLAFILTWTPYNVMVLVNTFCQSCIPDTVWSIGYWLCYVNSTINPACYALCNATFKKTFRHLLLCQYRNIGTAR
Test: mAChR M4 cell-based functional assay: calcium flux (Fluo-4, FDSS), positive allosteric modulator activity on the EC20 acetylcholine response, hM4-Gqi5 CHO-K1 cells
Settings: for Emax at 30 µM: CHO-K1, human M4, % ACh maximum at 30 μM; for pEC50: human M4, PAM activity on EC20 acetylcholine response, calcium flux, read-out: Human M4 EC50
Outline: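 CHO-K1 cells stably expressing human M4 with chimeric Gqi5, loaded with Fluo-4 AM for 50 min at 37° C. Compounds (11-point, 1:3 dilutions) added first, then an acetylcholine EC20 at 144 s; calcium read on FDSS at 1 Hz. EC50 is the half-maximal increase above the EC20 baseline, four-parameter logistic fit.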

SMILES	Emax at 30 µM [%]	pEC50
CC(C)(O)CNc1nc(N2CCc3ncc(N4CCCn5nccc54)cc3C2)c2cccnc2n1 [Compound 247, 1-((4-(3-(6,7-dihydropyrazolo[1,5-a]pyrimidin-4(5H)-yl)-7,8-dihydro-1,6-naphthyridin-6(5H)-yl)pyrido[2,3-d]pyrimidin-2-yl)amino)-2-methylpropan-2-ol]	80	6.43
c1cnc2nc(N3CCOCC3)nc(N3CCc4ncc(N5CCCn6nccc65)cc4C3)c2c1 [Compound 250, 4-(4-(3-(6,7-dihydropyrazolo[1,5-a]pyrimidin-4(5H)-yl)-7,8-dihydro-1,6-naphthyridin-6(5H)-yl)pyrido[2,3-d]pyrimidin-2-yl)morpholine]	73	6.44
CC1CN(c2ncnc3ccc(Cl)cc23)Cc2cc(N3CCOCC3)cnc21 (centres unmarked) [Compound 253, 4-(6-(6-chloroquinazolin-4-yl)-8-methyl-5,6,7,8-tetrahydro-1,6-naphthyridin-3-yl)morpholine]	96	7.52
Cc1nc(N2CCc3ncc(-c4ccnn4C4COC4)cc3C2)c2cc(Cl)ccc2n1 [Compound 255, 6-chloro-2-methyl-4-(3-(1-(oxetan-3-yl)-1H-pyrazol-5-yl)-7,8-dihydro-1,6-naphthyridin-6(5H)-yl)quinazoline]	76	6.21
Cc1nc(N2CCc3ncc(-c4cc(C(F)(F)F)nn4C)cc3C2)c2cc(Cl)ccc2n1 [Compound 257, 6-chloro-2-methyl-4-(3-(1-methyl-3-(trifluoromethyl)-1H-pyrazol-5-yl)-7,8-dihydro-1,6-naphthyridin-6(5H)-yl)quinazoline]	87	6.08
C[C@@H]1CN(c2ncnc3ccc(F)cc23)Cc2cc(N3CCOCC3)cnc21 [Compound 259, (R)-4-(6-(6-fluoroquinazolin-4-yl)-8-methyl-5,6,7,8-tetrahydro-1,6-naphthyridin-3-yl)morpholine]	91	6.70
C[C@H]1CN(c2ncnc3cc(F)c(F)cc23)Cc2cc(N3CCOCC3)cnc21 [Compound 261, (S)-4-(6-(6,7-difluoroquinazolin-4-yl)-8-methyl-5,6,7,8-tetrahydro-1,6-naphthyridin-3-yl)morpholine]	79	6.36
C[C@H]1CN(c2ncnc3ccc(Cl)cc23)Cc2cc(N3CCOCC3)cnc21 [Compound 263, (S)-4-(6-(6-chloroquinazolin-4-yl)-8-methyl-5,6,7,8-tetrahydro-1,6-naphthyridin-3-yl)morpholine]	88	6.80
Cc1cnn(C)c1-c1cnc2c(c1)CN(c1ncnc3ccc(F)cc13)CC2 [Compound 266, 4-(3-(1,4-dimethyl-1H-pyrazol-5-yl)-7,8-dihydro-1,6-naphthyridin-6(5H)-yl)-6-fluoroquinazoline]	90	7.22
Fc1cc2ncnc(N3CCc4ncc(-c5ccnn5C5COC5)cc4C3)c2cc1F [Compound 269, 6,7-difluoro-4-(3-(1-(oxetan-3-yl)-1H-pyrazol-5-yl)-7,8-dihydro-1,6-naphthyridin-6(5H)-yl)quinazoline]	79	5.80
Cc1cnn(C)c1-c1cnc2c(c1)CN(c1ncnc3cc(F)c(F)cc13)CC2 [Compound 270, 4-(3-(1,4-dimethyl-1H-pyrazol-5-yl)-7,8-dihydro-1,6-naphthyridin-6(5H)-yl)-6,7-difluoroquinazoline]	86	7.00

More lines, now with the values ahead:

Emax at 30 µM [%]	pEC50	SMILES
63	7.30	c1cnc2nc(N3CCCC3)nc(N3CCc4ncc(N5CCCn6nccc65)cc4C3)c2c1 [Compound 246, 4-(3-(6,7-dihydropyrazolo[1,5-a]pyrimidin-4(5H)-yl)-7,8-dihydro-1,6-naphthyridin-6(5H)-yl)-2-(pyrrolidin-1-yl)pyrido[2,3-d]pyrimidine]
82	6.52	OC1(C2CC2)CN(c2nc(N3CCc4ncc(N5CCCn6nccc65)cc4C3)c3cccnc3n2)C1 [Compound 248, 3-cyclopropyl-1-(4-(3-(6,7-dihydropyrazolo[1,5-a]pyrimidin-4(5H)-yl)-7,8-dihydro-1,6-naphthyridin-6(5H)-yl)pyrido[2,3-d]pyrimidin-2-yl)azetidin-3-ol]
47	6.09	CC1(C)CN(c2nc(N3CCc4ncc(N5CCCn6nccc65)cc4C3)c3cccnc3n2)CCO1 [Compound 249, 4-(4-(3-(6,7-dihydropyrazolo[1,5-a]pyrimidin-4(5H)-yl)-7,8-dihydro-1,6-naphthyridin-6(5H)-yl)pyrido[2,3-d]pyrimidin-2-yl)-2,2-dimethylmorpholine]
75	6.12	CC1CN(c2ncnc3ccc(F)cc23)Cc2cc(N3C(=O)COc4ccccc43)cnc21 (centres unmarked) [Compound 251, 4-(6-(6-fluoroquinazolin-4-yl)-8-methyl-5,6,7,8-tetrahydro-1,6-naphthyridin-3-yl)-2H-benzo[b][1,4]oxazin-3(4H)-one]
90	6.82	CC1CN(c2ncnc3cc(F)c(F)cc23)Cc2cc(N3CCOCC3)cnc21 (centres unmarked) [Compound 252, 4-(6-(6,7-difluoroquinazolin-4-yl)-8-methyl-5,6,7,8-tetrahydro-1,6-naphthyridin-3-yl)morpholine]
86	6.44	Cc1nc(N2CCc3ncc(-c4ccnn4C(C)C)cc3C2)c2cc(Cl)ccc2n1 [Compound 254, 6-chloro-4-(3-(1-isopropyl-1H-pyrazol-5-yl)-7,8-dihydro-1,6-naphthyridin-6(5H)-yl)-2-methylquinazoline]
94	6.85	Cc1nc(N2CCc3ncc(-c4c(C)cnn4C)cc3C2)c2cc(Cl)ccc2n1 [Compound 256, 6-chloro-4-(3-(1,4-dimethyl-1H-pyrazol-5-yl)-7,8-dihydro-1,6-naphthyridin-6(5H)-yl)-2-methylquinazoline]
93	6.74	C[C@@H]1CN(c2ncnc3cc(F)c(F)cc23)Cc2cc(N3CCOCC3)cnc21 [Compound 258, (R)-4-(6-(6,7-difluoroquinazolin-4-yl)-8-methyl-5,6,7,8-tetrahydro-1,6-naphthyridin-3-yl)morpholine]
107	6.92	C[C@@H]1CN(c2ncnc3ccc(Cl)cc23)Cc2cc(N3CCOCC3)cnc21 [Compound 260, (R)-4-(6-(6-chloroquinazolin-4-yl)-8-methyl-5,6,7,8-tetrahydro-1,6-naphthyridin-3-yl)morpholine]
73	6.59	C[C@H]1CN(c2ncnc3ccc(F)cc23)Cc2cc(N3CCOCC3)cnc21 [Compound 262, (S)-4-(6-(6-fluoroquinazolin-4-yl)-8-methyl-5,6,7,8-tetrahydro-1,6-naphthyridin-3-yl)morpholine]
82	6.85	CC(C)n1nccc1-c1cnc2c(c1)CN(c1ncnc3ccc(F)cc13)CC2 [Compound 264, 6-fluoro-4-(3-(1-isopropyl-1H-pyrazol-5-yl)-7,8-dihydro-1,6-naphthyridin-6(5H)-yl)quinazoline]
76	6.30	Fc1ccc2ncnc(N3CCc4ncc(-c5ccnn5C5COC5)cc4C3)c2c1 [Compound 265, 6-fluoro-4-(3-(1-(oxetan-3-yl)-1H-pyrazol-5-yl)-7,8-dihydro-1,6-naphthyridin-6(5H)-yl)quinazoline]
81	6.70	Cn1nc(C(F)(F)F)cc1-c1cnc2c(c1)CN(c1ncnc3ccc(F)cc13)CC2 [Compound 267, 6-fluoro-4-(3-(1-methyl-3-(trifluoromethyl)-1H-pyrazol-5-yl)-7,8-dihydro-1,6-naphthyridin-6(5H)-yl)quinazoline]
85	6.72	CC(C)n1nccc1-c1cnc2c(c1)CN(c1ncnc3cc(F)c(F)cc13)CC2 [Compound 268, 6,7-difluoro-4-(3-(1-isopropyl-1H-pyrazol-5-yl)-7,8-dihydro-1,6-naphthyridin-6(5H)-yl)quinazoline]
80	6.02	Cn1nc(C(F)(F)F)cc1-c1cnc2c(c1)CN(c1ncnc3cc(F)c(F)cc13)CC2 [Compound 271, 6,7-difluoro-4-(3-(1-methyl-3-(trifluoromethyl)-1H-pyrazol-5-yl)-7,8-dihydro-1,6-naphthyridin-6(5H)-yl)quinazoline]
92	5.94	CN1CCN(c2cnc3c(c2)CN(c2ncnc4ccc(F)cc24)CC3)CC1=O [Compound 272, 4-(6-(6-fluoroquinazolin-4-yl)-5,6,7,8-tetrahydro-1,6-naphthyridin-3-yl)-1-methylpiperazin-2-one]
84	6.06	CN1CCN(c2cnc3c(c2)CN(c2ncnc4cc(F)c(F)cc24)CC3)CC1=O [Compound 273, 4-(6-(6,7-difluoroquinazolin-4-yl)-5,6,7,8-tetrahydro-1,6-naphthyridin-3-yl)-1-methylpiperazin-2-one]
